Test results: patent US20170094972A1, “Compounds and Compositions Having Knock-Down Activity Against Insect Pests” (priority 2015, published 2017)
Like-named read-outs stand apart in the source and are kept apart here.

How the values were obtained:
Type in all cases: in vivo
Anopheles stephensi [1] = assay: 12 well plate knockdown test; settings: 1 h, read-out: Anopheles stephensi 1 hour % KD
Method: (§1) The individual wells of a twelve (12) well tissue culture plates were treated with 100 μl of an ethanol solution containing a test compound at a defined concentration. Once the deposits were dry, five non-blood fed adult female Aedes aegypti or Anopheles stephensi (between two to five day old) were added to each well, and sustained with a 10% sucrose solution in a cotton wool plug. Assessment of the knockdown after 1 hour was carried out. Where multiple replicates of a treatment have been undertaken, the mean of those replicates is reported.

Aedes aegypti = assay: 12 well plate knockdown test; settings: 1 h, read-out: Aedes aegypti 1 hour % KD
Method: as §1

Anopheles stephensi [2] = assay: 6 well plate test, knockdown after 1 hour and mortality after 24 and 48 hours; set-up: KD: unit not given here; settings: for KD: after 1 hour
Method: The individual wells of six (6) well tissue culture plates were treated with […] of an ethanol solution containing a test compound at a defined concentration. Once the deposits were dry, ten non-blood fed adult female Anopheles stephensi (between two to five day old) were added to each well, and sustained with a 10% sucrose solution in a cotton wool plug. Assessment of the knockdown after 1 hour (Tables B1-B10), and mortality after 24 and 48 hours (Tables B1-B4) was carried out.
(§2) In case of multiple tests, the mean value is reported.

adult female mosquitoes = assay: Bottle assay based on CDC bottle assay
Method: Based on the “CDC bottle assay” (described at http://www.cdc.gov/malaria/resources/pdf/fsp/ir_manual/ir_cdc_bioassay_en.pdf) 1 ml of ethanol containing a test compound at a defined concentration was added to a 250 ml glass bottle and the bottles were placed on a rolling table to coat the inner surfaces as the solvent evaporated. Once dry, twenty five non-blood fed adult female mosquitoes of the appropriate species and strains (each three day old) were aspirated from the stock culture and gently blown into the exposure bottles. The lid of the bottle was replaced and the bottle placed upright out of direct sun light under standard culture conditions, nominally 28° C. and 60-80% relative humidity.
A stopwatch was started, and the assessment of the knock-down were made after 15 mins and 60 minutes. A mosquito was said to be knocked down if it was unable to stand, following the CDC definition. The bottles were replaced in an upright position when not being assessed.
After one hour the mosquitoes were carefully removed from the bottle with an aspirator and placed in a recovery cup. The mosquitoes were supplied with a 10% sucrose solution on a cotton wool bung, and stored under culture conditions. Assessments of the mortality were made after 24 hours and 48 hours (B15).
Each treatment was replicated a minimum of four times, with the mean knockdown or mortality recorded. In each study, a set of bottles was infested with a known insecticide susceptible strain of mosquitoes from the same genera as the resistant strains.

female mosquitoes = assay: Tunnel study based on WHOPES tunnel tests with Hemotek membrane feeding device; settings: for mortality at 10 mg/m2: 24 h
Method: Based on the “WHOPES tunnel tests” (described at http://apps.who.int/iris/bitstream/10665/80270/1/9789241505277_eng.pdf), except that live guniea pig baits were replaced with a Hemotek membrane feeding device, filled with blood and kept constant at 37° C. to mimic a human host. All tests were done under standardised laboratory controlled conditions (27° C.+2° C. under subdued light). The tunnel apparatus was a 60×30×30 cm glass case open at each end and the floor was lined with wet blue roll in order to maintain humidity. A 30×30×30 cm cage, covered in untreated netting, was placed at the release end. The test nets were cut to 25×25 cm squares and fitted into cardboard frames that allow a 20×20 cm area to be exposed. Nine holes, 1 cm in diameter, were made in the netting in the pattern specified in the WHOPES test. The frames were then fitted into the tunnel one third of the way down its length. A Hemotek device, filled with blood and kept constant at 37° C. to mimic a human host, was placed in the smaller area of the glass tunnel behind the test netting, and the end of the tunnel closed with a netting screen. A human sat at the Hemotek end of the tunnels for the duration of the test. At the start of the test (13.30-14.00), 100 female mosquitoes (non-blood fed, aged 5-8 days) were introduced into the cage. Mosquitoes are free to fly in the tunnel but have to make contact with the piece of netting and locate the holes in it before passing through to reach the bait. After 7 hours (20.30-21.00) the mosquitoes were counted in each section of the tunnel. The number of mosquitoes knocked down and blood fed were recorded. Blood-feeding inhibition was assessed by comparing the proportion of blood-fed females (alive or dead) in treated and control tests. Four tunnels were run simultaneously each day, with one control containing untreated netting included with all runs. Three replicates were carried out per treatment.
as §2

[3] = Table B1, Comp. (I.3) alone 0.1 ppm
[4] = Table B2, Comp. (I.3) alone 0.5 ppm
[5] = Table B3, Comp. (I.3) alone 0.5 ppm
[6] = Table B4, Comp. (I.3) alone 0.5 ppm
[7] = Table B11, Rate 10 mg/m2, 24 hours, read-out: % Mortality

NC(=O)c1cnccc1C(F)(F)F [I.3]
pest or weed control at 0.2 ppm (Anopheles stephensi [1]; Rate 0.2 PPM): 20%
pest or weed control at 2 ppm (Anopheles stephensi [1]; Rate 2 PPM): 20%
pest or weed control at 20 ppm (Anopheles stephensi [1]; Rate 20 PPM): 100%
pest or weed control at 200 ppm (Anopheles stephensi [1]; Rate 200 PPM): 100%
pest or weed control at 0.2 ppm (Aedes aegypti; Rate 0.2 PPM): 100%
pest or weed control at 2 ppm (Aedes aegypti; Rate 2 PPM): 100%
pest or weed control at 20 ppm (Aedes aegypti; Rate 20 PPM): 100%
pest or weed control at 200 ppm (Aedes aegypti; Rate 200 PPM): 100%
24 hr mort (Anopheles stephensi [2]; [3]): 0.0
48 hr mort (Anopheles stephensi [2]; [3]): 0.0
KD (Anopheles stephensi [2]; [3]): 23.3
24 hr mort (Anopheles stephensi [2]; [4]): 7.0
48 hr mort (Anopheles stephensi [2]; [4]): 10.0
KD (Anopheles stephensi [2]; [4]): 60.0
24 hr mort (Anopheles stephensi [2]; [5]): 0.0
48 hr mort (Anopheles stephensi [2]; [5]): 0.0
KD (Anopheles stephensi [2]; [5]): 73.0
24 hr mort (Anopheles stephensi [2]; [6]): 2.5
48 hr mort (Anopheles stephensi [2]; [6]): 2.5
KD (Anopheles stephensi [2]; [6]): 17.5
knockdown after 1 hour (Anopheles stephensi [2]; Table B10, Compound (I.3) alone 0.5 ppm): 0.0
24 hour % mort (adult female mosquitoes; Table B15, rates not given): 0%
48 hour % mort (adult female mosquitoes; Table B15, rates not given): 0%
% 1 hour KD (adult female mosquitoes; Table B15, rates not given): 86.66%
% 1 hour KD (adult female mosquitoes; Table B16, 10ug/bottle): 100%
% 24 hour mortality (adult female mosquitoes; Table B16, 10ug/bottle): 0%
mortality at 10 mg/m2 (female mosquitoes; [7]): 68%
mortality at 10 mg/m2 (female mosquitoes; Table B13, 10 mg/m2, read-out: % 24 hour mortality): 72.2%
mortality at 10 mg/m2 (female mosquitoes; Table B14, 10 mg/m2, read-out: % 24 hour mortality): 68%
% Blood fed (female mosquitoes; Table B11, Rate 10 mg/m2): 3%
% 1 hour KD (female mosquitoes; Table B12, 10 mg/m2): 41.24%
% Blood fed (female mosquitoes; Table B12, 10 mg/m2): 3.09%
% Through net (female mosquitoes; Table B12, 10 mg/m2): 9.28%
% Blood fed (female mosquitoes; Table B13, 10 mg/m2): 18.56%
% Through net (female mosquitoes; Table B13, 10 mg/m2): 22.68%
% Blood fed (female mosquitoes; Table B14, 10 mg/m2): 2.9%

CC1(C)C(C=C(Cl)Cl)C1C(=O)OCc1cccc(Oc2ccccc2)c1 (stereo not shown) [Permethrin]
24 hr mort (Anopheles stephensi [2]; Table B1, 0.0625 ppm alone): 0.0
48 hr mort (Anopheles stephensi [2]; Table B1, 0.0625 ppm alone): 0.0
KD (Anopheles stephensi [2]; Table B1, 0.0625 ppm alone): 0.0
24 hr mort (Anopheles stephensi [2]; Table B1, 0.125 ppm alone): 3.3
48 hr mort (Anopheles stephensi [2]; Table B1, 0.125 ppm alone): 0.0
KD (Anopheles stephensi [2]; Table B1, 0.125 ppm alone): 0.0
24 hr mort (Anopheles stephensi [2]; Table B1, 0.25 ppm alone): 16.7
48 hr mort (Anopheles stephensi [2]; Table B1, 0.25 ppm alone): 20.0
KD (Anopheles stephensi [2]; Table B1, 0.25 ppm alone): 0.0
24 hr mort (Anopheles stephensi [2]; Table B1, 0.5 ppm alone): 23.3
48 hr mort (Anopheles stephensi [2]; Table B1, 0.5 ppm alone): 30.0
KD (Anopheles stephensi [2]; Table B1, 0.5 ppm alone): 0.0
24 hr mort (Anopheles stephensi [2]; Table B1, 1 ppm alone): 40.0
48 hr mort (Anopheles stephensi [2]; Table B1, 1 ppm alone): 46.7
KD (Anopheles stephensi [2]; Table B1, 1 ppm alone): 10.0
24 hr mort (Anopheles stephensi [2]; Table B1, 2 ppm alone): 66.7
48 hr mort (Anopheles stephensi [2]; Table B1, 2 ppm alone): 80.0
KD (Anopheles stephensi [2]; Table B1, 2 ppm alone): 13.3
24 hr mort (Anopheles stephensi [2]; Table B2, 0.0625 ppm alone): 0.0
48 hr mort (Anopheles stephensi [2]; Table B2, 0.0625 ppm alone): 0.0
KD (Anopheles stephensi [2]; Table B2, 0.0625 ppm alone): 0.0
24 hr mort (Anopheles stephensi [2]; Table B2, 0.125 ppm alone): 0.0
48 hr mort (Anopheles stephensi [2]; Table B2, 0.125 ppm alone): 0.0
KD (Anopheles stephensi [2]; Table B2, 0.125 ppm alone): 0.0
24 hr mort (Anopheles stephensi [2]; Table B2, 0.25 ppm alone): 10.0
48 hr mort (Anopheles stephensi [2]; Table B2, 0.25 ppm alone): 10.0
KD (Anopheles stephensi [2]; Table B2, 0.25 ppm alone): 0.0
24 hr mort (Anopheles stephensi [2]; Table B2, 0.5 ppm alone): 30.0
48 hr mort (Anopheles stephensi [2]; Table B2, 0.5 ppm alone): 50.0
KD (Anopheles stephensi [2]; Table B2, 0.5 ppm alone): 0.0
24 hr mort (Anopheles stephensi [2]; Table B2, 1 ppm alone): 40.0
48 hr mort (Anopheles stephensi [2]; Table B2, 1 ppm alone): 70.0
KD (Anopheles stephensi [2]; Table B2, 1 ppm alone): 0.0
24 hr mort (Anopheles stephensi [2]; Table B2, 2 ppm alone): 80.0
48 hr mort (Anopheles stephensi [2]; Table B2, 2 ppm alone): 80.0
KD (Anopheles stephensi [2]; Table B2, 2 ppm alone): 0.0
24 hour % mort (adult female mosquitoes; Table B15, rates not given): 0%
48 hour % mort (adult female mosquitoes; Table B15, rates not given): 0%
% 1 hour KD (adult female mosquitoes; Table B15, rates not given): 100%
% 1 hour KD (adult female mosquitoes; Table B16, 1ug/bottle): 100%
% 24 hour mortality (adult female mosquitoes; Table B16, 1ug/bottle): 0%
mortality at 10 mg/m2 (female mosquitoes; [7]): 24%
% Blood fed (female mosquitoes; Table B11, Rate 10 mg/m2): 31%
